Tested on: Lewis-Brown Norway F1 hybrid cardiac allografts in Lewis rat recipients
Experiment: Acute cardiac allograft rejection model in rats (procedure of Kupiec-Weglinski)
Format: in vivo
Conditions: for GRAFT SURVIVAL (days) MEAN ± SD: N=7
Experimental: The therapeutic efficacy of a pharmaceutical composition of the invention was tested according to the procedure of Kupiec-Weglinski, J. W., et al., (1988) Transplant Proc. 2:207-216 (hereinafter "Kupiec-Weglinski") to determine its in vivo potency as an acute transplantation/graft rejection modulator.
Briefly, to preform these experiments, the following protocol was employed. Male inbred adult rats (Lewis-Brown Norway F1 Hybrid rats, obtained from Harlan sprague-Dawley Inc., Indianapolis, Ind.) were used. Lewis-Brown Norway F1 Hybrid cardiac allografts were transplanted to the abdominal great vessels of Lewis recipients. The animals were administered compounds according to the following five distinct regimens.
Protocol I. Pretreatment Protocol--20 mg/kg/day of Compound A was administered orally for 7 consecutive days prior to transplantation (days -7 to -1).
Protocol II Treatment Protocol--20 mg/kg/day of Compound A was administered orally for 7 consecutive post-transplant days (days 0-6) followed by intermittent 5 day courses (days 9-13 and 16-20).
Protocol III Pretreatment and Treatment Protocol--20 mg/kg/day of Compound A was administered orally for 7 consecutive days prior to transplantation (days -7 to -1) followed by intermittent 5 day courses (days 9-13 and 16-20).
Ventricular contractions were assessed daily by palpation through the recipient flank. Rejection was defined as the day of cessation of myocardial contractions and confirmed histologically.

CCCC1(CCC)CCC2(CCN(CCCN(C)C)C2)CC1 [Compound A, N,N-dimethyl-8,8-dipropyl-2-azaspiro[4,5]-decane-2-propanamine]
GRAFT SURVIVAL (days) MEAN ± SD (Protocol I pretreatment: 20 mg/kg/day orally, days -7 to -1): 14.7 ± 5.8 days | GRAFT SURVIVAL (days) MEAN ± SD (Protocol II treatment: 20 mg/kg/day orally, days 0-6, then days 9-13 and 16-20): 16.7 ± 2.0 days | GRAFT SURVIVAL (days) MEAN ± SD (Protocol III pretreatment and treatment: 20 mg/kg/day orally, days -7 to -1, then days 9-13 and 16-20): 16.0 ± 4.3 days | average graft survival time (single compound protocols (pretreatment, treatment or both), 20 mg/kg/day orally, untreated average 7 days): 16 days

Source: patent US6051596A, “Immunosuppressive compositions” (AnorMED, Inc., priority 1997, dated 2000)
